Source: patent US20080306076A1, “MODULATION OF CHEMOSENSORY RECEPTORS AND LIGANDS ASSOCIATED THEREWITH” (SENOMYX, INC., priority 2007, published 2008)
Numbering of substitutions follows the chain as printed.

Key:
[1] = target: T1, hT1R1 H71A (Homo sapiens, UniProt Q7RTX1, H71A); assay: Mutagenesis study, hT1R1 mutant H71A; assay type: cell-based; conditions: H71 mutation
T1 construct: expressed in transfected cells; host or cells: HEK293, transient transfection
T1 sequence (Q7RTX1 21-841 H71A): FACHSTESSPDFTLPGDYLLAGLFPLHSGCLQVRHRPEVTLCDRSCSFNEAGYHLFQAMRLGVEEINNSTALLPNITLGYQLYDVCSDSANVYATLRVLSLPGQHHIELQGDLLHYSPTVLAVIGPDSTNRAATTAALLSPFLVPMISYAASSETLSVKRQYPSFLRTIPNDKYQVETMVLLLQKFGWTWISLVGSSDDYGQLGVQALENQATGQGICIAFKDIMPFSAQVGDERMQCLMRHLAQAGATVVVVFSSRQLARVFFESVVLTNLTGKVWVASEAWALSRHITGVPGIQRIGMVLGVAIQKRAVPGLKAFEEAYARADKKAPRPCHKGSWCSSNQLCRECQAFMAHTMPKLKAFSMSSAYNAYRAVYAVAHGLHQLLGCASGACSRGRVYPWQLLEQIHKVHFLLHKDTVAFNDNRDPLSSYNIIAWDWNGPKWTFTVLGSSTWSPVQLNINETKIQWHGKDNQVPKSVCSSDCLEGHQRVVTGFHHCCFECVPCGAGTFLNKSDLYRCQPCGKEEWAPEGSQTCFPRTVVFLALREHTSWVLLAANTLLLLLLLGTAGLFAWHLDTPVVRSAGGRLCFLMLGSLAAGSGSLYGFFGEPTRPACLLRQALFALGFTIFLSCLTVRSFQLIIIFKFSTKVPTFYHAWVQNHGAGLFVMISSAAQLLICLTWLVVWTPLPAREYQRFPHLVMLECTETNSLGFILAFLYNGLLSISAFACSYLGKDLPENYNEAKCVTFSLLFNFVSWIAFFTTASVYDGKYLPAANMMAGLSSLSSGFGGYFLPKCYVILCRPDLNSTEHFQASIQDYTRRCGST
T1 sequence (Q923K1 21-858 partner): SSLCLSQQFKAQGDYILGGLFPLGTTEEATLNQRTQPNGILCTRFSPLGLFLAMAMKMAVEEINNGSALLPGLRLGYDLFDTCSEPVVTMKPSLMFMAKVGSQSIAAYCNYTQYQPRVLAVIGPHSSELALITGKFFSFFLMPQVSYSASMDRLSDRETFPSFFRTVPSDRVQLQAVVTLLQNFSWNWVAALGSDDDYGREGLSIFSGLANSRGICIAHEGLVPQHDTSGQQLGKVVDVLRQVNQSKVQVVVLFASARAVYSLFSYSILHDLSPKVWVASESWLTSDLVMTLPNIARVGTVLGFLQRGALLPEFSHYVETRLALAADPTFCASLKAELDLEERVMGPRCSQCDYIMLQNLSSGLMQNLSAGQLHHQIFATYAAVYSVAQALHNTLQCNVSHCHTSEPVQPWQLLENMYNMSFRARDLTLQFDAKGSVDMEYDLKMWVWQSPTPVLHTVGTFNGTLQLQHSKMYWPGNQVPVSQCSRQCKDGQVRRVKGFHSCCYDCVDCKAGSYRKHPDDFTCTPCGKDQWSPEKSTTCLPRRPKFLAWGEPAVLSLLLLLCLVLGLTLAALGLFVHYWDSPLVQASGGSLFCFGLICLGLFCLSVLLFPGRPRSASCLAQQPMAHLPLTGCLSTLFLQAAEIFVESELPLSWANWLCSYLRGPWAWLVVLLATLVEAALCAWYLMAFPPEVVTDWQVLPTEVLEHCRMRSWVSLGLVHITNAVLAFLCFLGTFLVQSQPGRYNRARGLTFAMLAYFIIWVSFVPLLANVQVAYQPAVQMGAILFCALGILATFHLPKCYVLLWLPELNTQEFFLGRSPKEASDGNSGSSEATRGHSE
Source text: (§1) In order to further define the interaction sites of umami stimuli, we performed site-directed mutagenesis on human T1R1 VFT. The mutagenesis was done using the routine PCR-based method. […] were transiently transfected into HEK293 cell together with the rat T1R3 wild type cDNA, and the transfected cells were characterized using an automated FLIPR machine or a calcium imaging system as described in our previous patent applications.

[2] = target: T2, hT1R1 R277A (Homo sapiens, UniProt Q7RTX1, R277A); assay: Mutagenesis study, hT1R1 mutant R277A; assay type: cell-based; conditions: R277 mutation
T2 construct: expressed in transfected cells; host or cells: HEK293, transient transfection
T2 sequence (Q7RTX1 21-841 R277A): T1 sequence (Q7RTX1 21-841 H71A) with A51H, R257A
T2 sequence (Q923K1 21-858 partner): T1 sequence (Q923K1 21-858 partner)
Source text: as §1

Question: With `Nc1nc2c(ncn2[C@@H]2O[C@H](COP(=O)(O)O)[C@@H](O)[C@H]2O)c(=O)[nH]1` [GMP, guanosine-5′-monophosphate] as the molecule, how does the “enhancement activity of GMP” value [1] read?
Answer: Its value is “similarly affected”.

Question: What about the “enhancement activity of GMP” value [2] of the same molecule?
Answer: Its value is “similarly affected”.
